Source: ChEMBL document CHEMBL1158878, “New phomopsolides from a Penicillium sp” (1997)

Experiments:
Assay type in all cases: functional
Staphylococcus aureus [1] = assay: Antimicrobial activity against Staphylococcus aureus at 10 ug by antimicrobial disk assay; conditions: read-out: IZ
Staphylococcus aureus [2] = assay: Antimicrobial activity against Staphylococcus aureus at 25 ug by antimicrobial disk assay; conditions: read-out: IZ
Staphylococcus aureus [3] = assay: Antimicrobial activity against Staphylococcus aureus at 30 ug by antimicrobial disk assay; conditions: read-out: IZ
Staphylococcus aureus [4] = assay: Antimicrobial activity against Staphylococcus aureus at 100 ug by antimicrobial disk assay; conditions: read-out: IZ
Staphylococcus aureus [5] = assay: Antimicrobial activity against Staphylococcus aureus at 50 ug by antimicrobial disk assay; conditions: read-out: IZ
Staphylococcus aureus [6] = assay: Antimicrobial activity against Staphylococcus aureus at 10 units by antimicrobial disk assay

CN[C@@H]1[C@H](O[C@H]2[C@H](O[C@H]3[C@H](O)[C@@H](O)[C@H](N=C(N)N)[C@@H](O)[C@@H]3N=C(N)N)O[C@@H](C)[C@]2(O)C=O)O[C@@H](CO)[C@H](O)[C@H]1O [STREPTOMYCIN]
zone of inhibition at 10 µg/disc (Staphylococcus aureus [1]): 13 mm

C/C=C(\C)C(=O)O[C@H]1C=CC(=O)O[C@H]1/C=C/C(=O)C(C)O (some centres undefined)
zone of inhibition at 25 µg/disc (Staphylococcus aureus [2]): 22 mm

C/C=C(\C)C(=O)O[C@H]1C=CC(=O)O[C@H]1/C=C\C(=O)C(C)O (some centres undefined) [PHOMOPSOLIDE A]
zone of inhibition at 25 µg/disc (Staphylococcus aureus [2]): 22 mm

C/C=C(\C)C(=O)O[C@H]1C=CC(=O)O[C@H]1/C=C/[C@H](O)[C@H](C)O [PHOMOPSOLIDE B]
zone of inhibition at 25 µg/disc (Staphylococcus aureus [2]): 20 mm

CN(C)[C@@H]1C(O)=C(C(N)=O)C(=O)[C@@]2(O)C(O)=C3C(=O)c4c(O)cccc4[C@@](C)(O)[C@H]3C[C@@H]12 [TETRACYCLINE]
zone of inhibition at 30 µg/disc (Staphylococcus aureus [3]): 38 mm

C/C=C/C1=C(C)C(=O)C(C)(O)O1 (centres undefined)
zone of inhibition at 100 µg/disc (Staphylococcus aureus [4]): 9 mm

C/C=C(\C)C(=O)O[C@H]1C=CC(=O)O[C@H]1CCC(=O)C(C)O (some centres undefined) [6,7-DIHYDROPHOMOPSOLIDE A]
zone of inhibition at 50 µg/disc (Staphylococcus aureus [5]): 9 mm

CC1(C)S[C@@H]2[C@H](NC(=O)Cc3ccccc3)C(=O)N2[C@H]1C(=O)O [PENICILLIN G]
inhibition zone (IZ) (Staphylococcus aureus [6]): 22 mm

C/C=C(\C)C(=O)O[C@H]1C=CC(=O)O[C@H]1CC[C@H](O)[C@H](C)O [6,7-DIHYDROPHOMOPSOLIDE B]
zone of inhibition at 100 µg/disc (Staphylococcus aureus [4]): 10 mm
